# Reference: patent publication US20230293599A1, “BACTERIAL COMPOSITIONS WITH ANTI-INFLAMMATORY ACTIVITY” (Universiteit Gent, priority 2020, published 2023)
# System: P. aeruginosa
# Assay: Biolog Phenotype Microarray PM1-2 growth on carbon sources
# Format: cell-based, Pseudomonas aeruginosa
# Details: not given
# Experimental: (§1) Using Phenotype Microarray (PM) panels (Biolog), the influence of 190 carbon sources on the growth of the potential probiotic species R. mucilaginosa, R. dentocariosa, R. gilardii, G. haemolysans, and common respiratory pathogens P. aeruginosa, and S. aureus was determined. PM1 and PM2 panels (Biolog) were inoculated according to the manufacturer's instructions. Growth curves were generated for 35 hours by measuring the absorbance at 590 nm using an EnVision (Perkin Elmer) plate reader.
row,Compound,"AUC of growth curve, P. aeruginosa"
1,O=C1O[C@@H]([C@H](O)CO)[C@H](O)[C@H]1O [D-Galactonic-Acid-γ-Lactone],397.9

# Same assay, conditions: 35 hours, absorbance 590 nm, n = 1; cells without values AUC < 50
row,Compound,"AUC of growth curve, P. aeruginosa"
1,NC(=O)C[C@H](N)C(=O)O [L-Asparagine],1032.0
2,NC(=O)CC[C@H](N)C(=O)O [L-Glutamine],987.8
3,OC[C@H]1O[C@@H](n2cnc3c(O)ncnc32)[C@H](O)[C@@H]1O [Inosine],141.0
4,CC(O)(CC(=O)O)C(=O)O (stereo not shown) [Citramalic Acid],183.9
5,O=C1CC[C@@H](C(=O)O)N1 [L-Pyroglutamic Acid],1438.7
6,NC(=O)CCC(=O)O [Succinamic Acid],53.6
7,O=C[C@H](O)[C@@H](O)[C@H](O)[C@H](O)C(=O)O [D-Glucuronic Acid],543.2
8,NCC(=O)O [Glycine],101.6
9,N[C@H](CC(=O)O)C(=O)O [D-Aspartic Acid],101.3
10,N[C@@H](CCO)C(=O)O [L-Homoserine],82.5
11,N[C@@H](Cc1c[nH]cn1)C(=O)O [L-Histidine],773.2
12,OC[C@@H](O)[C@H](O)[C@H](O)[C@@H](O)CO [Dulcitol],72.0
13,O=C[C@H](O)[C@@H](O)[C@H](O)[C@H](O)COP(=O)(O)O [D-Glucose-6-Phosphate],399.6
14,O=C[C@@H](O)[C@H](O[C@@H]1O[C@H](CO)[C@H](O)[C@H](O)[C@H]1O)[C@H](O)CO [3-0-β-D-Galacto-pyranosyl-D-Arabinose],188.8
15,O=C(O)CC(CC(=O)O)C(=O)O [Tricarballylic Acid],510.7
16,COC(=O)[C@@H](C)O [D-Lactic Acid Methyl Ester],1081.7
17,N[C@@H](CC(=O)O)C(=O)O [L-Aspartic Acid],730.7
18,"C[N+](C)(C)CC(O)CC(=O)[O-] (racemic) [D,L-Carnitine]",574.6
19,O=C(O)Cc1ccc(O)cc1 [p_Hydroxy Phenyl Acetic Acid],987.9
20,NCCO [2-Aminoethanol],293.7
21,NCCc1ccc(O)cc1 [Tyramine],684.5
22,C=C(CC(=O)O)C(=O)O [Itaconic Acid],790.8
23,O=C(O)Cc1cccc(O)c1 [m-Hydroxy Phenyl Acetic Acid],114.0

# System: S. aureus
# Assay: not given
# Format: cell-based, Staphylococcus aureus
# Details: not given
# Experimental: as §1
row,Compound,"AUC of growth curve, S. aureus"
1,NC(=O)C[C@H](N)C(=O)O [L-Asparagine],684.0
2,N[C@@H](CO)C(=O)O [L-Serine],558.2
3,NC(=O)CC[C@H](N)C(=O)O [L-Glutamine],697.1
4,CO[C@H]1O[C@H](CO)[C@@H](O)[C@H](O)[C@H]1O [α-Methyl-D-Glucoside],281.5
5,OC[C@H]1O[C@@H](n2cnc3c(O)ncnc32)[C@H](O)[C@@H]1O [Inosine],1075.0
6,OC[C@H]1O[C@@H](O)[C@H](O)[C@H](O)[C@@H]1O [β-D-Allose],122.9
7,O=C1CC[C@@H](C(=O)O)N1 [L-Pyroglutamic Acid],427.9
8,N[C@H](CO)C(=O)O [D-Serine],76.2
9,NC(=O)CCC(=O)O [Succinamic Acid],490.3
10,"CC(O)CO (stereo not shown) [1,2-Propanediol]",150.0
11,OC[C@@H](O)[C@H](O)[C@@H](O)CO [Xylitol],280.8
12,O=C[C@H](O)[C@@H](O)[C@H](O)[C@H](O)C(=O)O [D-Glucuronic Acid],292.7
13,COC(=O)CCC(=O)O [Mono Methyl Succinate],532.1
14,NCC(=O)O [Glycine],743.1
15,N[C@H](CC(=O)O)C(=O)O [D-Aspartic Acid],242.2
16,N[C@@H](CCO)C(=O)O [L-Homoserine],194.1
17,N[C@@H](Cc1c[nH]cn1)C(=O)O [L-Histidine],467.3
18,O=C[C@H](O)[C@@H](O)[C@H](O)[C@H](O)COP(=O)(O)O [D-Glucose-6-Phosphate],168.0
19,OC[C@H]1O[C@H](OC[C@H]2O[C@H](OC[C@H]3O[C@H](O[C@]4(CO)O[C@H](CO)[C@@H](O)[C@@H]4O)[C@H](O)[C@@H](O)[C@@H]3O)[C@H](O)[C@@H](O)[C@H]2O)[C@H](O)[C@@H](O)[C@H]1O [Stachyose],324.4
20,O=C[C@@H](O)[C@H](O[C@@H]1O[C@H](CO)[C@H](O)[C@H](O)[C@H]1O)[C@H](O)CO [3-0-β-D-Galacto-pyranosyl-D-Arabinose],446.3
21,OC[C@H]1O[C@@H](O[C@H]2[C@H](O)[C@@H](O)[C@@H](O)O[C@@H]2CO)[C@H](O)[C@@H](O)[C@H]1O [α-D-Lactose],764.6
22,CO[C@@H]1O[C@H](CO)[C@@H](O)[C@H](O)[C@H]1O [β-Methyl-D-Galactoside],358.9

row,Compound,"AUC of growth curve, S. aureus"
1,Cc1cn([C@H]2C[C@H](O)[C@@H](CO)O2)c(=O)[nH]c1=O [Thymidine],735.9
2,OC[C@@H](O)C(O)[C@H](O)CO [D-Arabitol],832.3
3,O=C(O)CCCCCCCCC(=O)O [Sebacic Acid],252.2
4,O=C(O)[C@H](O)[C@@H](O)C(=O)O [L-Tartaric Acid],163.4
5,O=C(O)CC(CC(=O)O)C(=O)O [Tricarballylic Acid],177.0
6,O[C@H]1[C@H](O)[C@@H](O)[C@H](O)[C@@H](O)[C@H]1O [m-inositol],157.9
7,COC(=O)[C@@H](C)O [D-Lactic Acid Methyl Ester],517.2
8,CC(O)CC(=O)O (stereo not drawn) [β-Hydroxy Butyric Acid],326.7
9,COC1OCC(O)C(O)C1O [β-Methyl-D-Xyloside],166.1
10,C[C@H](O)[C@@H](N)C(=O)O [D-Threonine],87.8
11,CO[C@@H]1O[C@H](C(=O)O)[C@@H](O)[C@H](O)[C@H]1O [β-Methyl-D-Glucuronic Acid],400.6
12,O=C(O)CO [Glycolic Acid],344.8
13,Tween 80,468.6
14,N[C@@H](CC(=O)O)C(=O)O [L-Aspartic Acid],464.1
15,"O=C1O[C@H](CO)[C@@H](O)[C@H]1O [D-Ribono-1,4-Lactone]",100.2
16,N#C[C@H](O[C@@H]1O[C@H](CO[C@@H]2O[C@H](CO)[C@@H](O)[C@H](O)[C@H]2O)[C@@H](O)[C@H](O)[C@H]1O)c1ccccc1 [Amygdalin],254.6
17,CCCC(=O)O [Butyric Acid],1011.5
18,O=CO [Formic Acid],474.0
19,OC[C@@]12OC[C@@H](O1)[C@@H](O)[C@@H](O)[C@@H]2O [Sedoheptulosan],277.8
20,C[C@@H](O)[C@H](N)C(=O)O [L-Threonine],754.3
21,O=C1CCC(C(=O)O)O1 (stereo not drawn) [α-Hydroxy-Glutaric Acid γ-Lactone],112.1
22,CC(=O)N[C@H]1C(O)O[C@H](CO)[C@H](O)[C@@H]1O (stereo partly drawn) [N-Acetyl-D-Galactosamine],59.3

row,Compound,"AUC of growth curve, S. aureus"
1,N[C@@H](C(=O)O)[C@@H](O)[C@H](O)[C@H](O)CO [D-Glucosaminic Acid],267.3
2,C[C@H](N)C(N)=O [L-Alaninamide],295.4
3,C/C(=C/C(=O)O)C(=O)O [Citraconic Acid],86.7
4,O=P(O)(O)O[C@H]1O[C@H](CO)[C@@H](O)[C@H](O)[C@H]1O [D-Glucose-1-Phosphate],189.0
5,OC[C@H]1O[C@H](OC[C@H]2O[C@H](O[C@]3(CO)O[C@H](CO)[C@@H](O)[C@@H]3O)[C@H](O)[C@@H](O)[C@@H]2O)[C@H](O)[C@@H](O)[C@H]1O [D-Rafinose],282.1
6,OC[C@H](O)C(O)[C@@H](O)CO [L-Arabitol],165.7
7,Tween 20,214.4
8,OC[C@@H](O)[C@@H](O[C@H]1O[C@H](CO)[C@@H](O)[C@H](O)[C@H]1O)[C@H](O)[C@@H](O)CO [Maltitol],783.0
9,Nc1ncnc2c1ncn2C1CC(O)C(CO)O1 (stereo not shown) [2-Deoxy-Adenosine],419.1
10,OC[C@@H](O)[C@@H](O[C@@H]1O[C@H](CO)[C@H](O)[C@H](O)[C@H]1O)[C@H](O)[C@@H](O)CO [Lactitol],338.8
11,CC(=O)N[C@@H](CO)[C@@H](O)[C@H](O)[C@H](O)CO [N-Acetyl-D-Glucosaminitol],381.9
12,COC1OC(CO)C(O)C(O)C1O [α-Methyl-D-Mannoside],264.2
13,CCCC(=O)C(=O)O [α-Keto-Valeric Acid],734.6
14,O=C(O)CCCO [γ-Hydroxy Butyric Acid],343.7
15,O=C[C@@H](O)[C@H](O)[C@@H](O)[C@@H](O)CO [L-Glucose],314.7
16,OC[C@H]1O[C@@H](O[C@@H]2[C@@H](CO)OC(O)(CO)[C@H]2O)[C@H](O)[C@@H](O)[C@H]1O (mixture of isomers) [Lactulose],656.2
17,CCCCCC(=O)O [Caproic Acid],908.9
18,CC(=O)N[C@H]1[C@H]([C@H](O)[C@H](O)CO)OC(O)(C(=O)O)C[C@@H]1O (stereo partly shown) [N-Acetyl-Neuraminic Acid],647.5
19,CCC(O)C(=O)O (stereo not drawn) [α-Hydroxy-Butyric Acid],567.8
20,O=C(O)[C@H](O)[C@@H](O)[C@H](O)[C@H](O)CO[C@H]1O[C@H](CO)[C@H](O)[C@H](O)[C@H]1O [Melibionic Acid],270.3
21,O=C(O)C(=O)O [Oxalic Acid],463.7

# Same assay, conditions: 35 hours, absorbance 590 nm, n = 1; cells without values AUC < 50
row,Compound,"AUC of growth curve, S. aureus"
1,Laminarin,192.8
2,Gelatin,52.4
3,NCCCC[C@H](N)C(=O)O [L-Lysine],331.6
4,Gentiobiose,471.4
5,Chondroitin Sulfate C,199.7
6,CC(=O)O [Acetic Acid],898.7
7,Mannan,154.5
8,Glycogen,197.7
